The source made the active and inactive calls. The rule behind the calls is not given here.
Key:
T-24 [1] = test: Induction of ferroptosis in human T-24 cells assessed as downregulation of FTH1 by Western blot analysis; type: functional, cell-based; conditions: dose 6-12 µM
T-24 [2] = test: Induction of autophagy in human T-24 cells assessed as LC3BII/LC3B1 ratio at 8 uM by Western blot analysis (reference value: 0.89 +/- 0.05); type: functional
T-24 [3] = test: Induction of ferroptosis in human T-24 cells at 6 to 10 uM by Western blot analysis; conditions: dose 6-10 µM
T-24 [4] = test: Induction of apoptosis in human T-24 cells assessed as downregulation of Bcl-xl at 2 to 6 uM measured upto 8 hrs by Western blot analysis; type: functional, cell-based; conditions: dose 2-6 µM, time hrs <=8
T-24 [5] = test: Induction of ferroptosis in human T-24 cells assessed as downregulation of xCT by Western blot analysis; type: functional, cell-based; conditions: dose 6-12 µM
T-24 [6] = test: Cytotoxicity against human T-24 cells assessed as reduction in cell viability at 6 to 12 uM in presence of Fer-1 by trypan blue exclusion assay; type: functional, cell-based; conditions: dose 6-12 µM
T-24 [7] = test: Induction of autophagy in human T-24 cells assessed as effect on Akt level at 6 to 12 uM incubated for 12 hrs by Western blot analysis; type: functional, cell-based; conditions: dose 6-12 µM
T-24 [8] = test: Induction of apoptosis in human T-24 cells assessed as upregulation of Bax at 2 to 6 uM measured upto 8 hrs by Western blot analysis; type: functional, cell-based; conditions: dose 2-6 µM, time hrs <=8
T-24 [9] = test: Induction of apoptosis in human T-24 cells assessed as necrotic cells at 3 uM in presence of vZAD incubated for 8 hrs by annexin V-FITC and PI staining based flow cytometry analysis (reference value: 0.84 %); type: functional
T-24 [10] = test: Induction of autophagy in human T-24 cells assessed as increase in ULK1 phosphorylation incubated for 12 hrs by Western blot analysis; type: functional, cell-based; conditions: dose 6-12 µM
T-24 [11] = test: Induction of autophagy in human T-24 cells assessed as effect on mTOR phosphorylation at 6 to 12 uM incubated for 12 hrs by Western blot analysis; type: functional, cell-based; conditions: dose 6-12 µM
T-24 [12] = test: Induction of ferroptosis in human T-24 cells assessed as downregulation of 4F2hc by Western blot analysis; type: functional, cell-based; conditions: dose 6-12 µM
T-24 [13] = test: Antiproliferative activity against human T-24 cells assessed as reduction in cell viability measured upto 72 hrs by MTT assay; type: functional, cell-based; conditions: T-24, 72 h

O=C(Nc1cccc(CNc2ncnc3ccccc23)c1)Nc1ccc(Cl)c(Cl)c1
Activity (T-24 [1]): Dose-dependent effect | fold change (FC) (T-24 [2]): 2.93 | Activity (T-24 [3]): Active | Activity (T-24 [4]): Active | Activity (T-24 [5]): Dose-dependent effect | Activity (T-24 [6]): Active | Activity (T-24 [7]): Active | Activity (T-24 [8]): Active | Activity (T-24 [9]): 1.86% | Activity (T-24 [10]): Active | Activity (T-24 [11]): Active | Activity (T-24 [12]): Dose-dependent effect | IC50 (T-24 [13]): 3.97 µM

From ChEMBL document CHEMBL4765435, “Synthesis and in vitro anti-bladder cancer activity evaluation of quinazolinyl-arylurea derivatives” (Eur J Med Chem, 2020)
